This passage reports EC50 and IC50 results from patent publication US10336762B2 (priority 2017, dated 2019).

As a reminder, the EC50 is the concentration at which the effect is half-maximal. One may read the IC50 as the concentration at which inhibition is half-maximal. A lower IC50 goes with inhibition by little substance.

The subject of assay [1] is TNFα. As to the kind of experiment: cells. The class given is cell-based, human. The conditions noted are these: Homo sapiens, Monocyte, LPS-stimulated human monocytes, TNFα content; read-out: EC50 TNF.
Assay [2] addresses IRAK4 enzyme (Homo sapiens (Human), UniProt Q9NWZ3). As to the kind of experiment: biochemical. The class given is biochemical. The conditions noted are these: IRAK4 enzyme, TR-FRET, 500 μM ATP.

Chain of IRAK4 enzyme (Q9NWZ3 whole entry): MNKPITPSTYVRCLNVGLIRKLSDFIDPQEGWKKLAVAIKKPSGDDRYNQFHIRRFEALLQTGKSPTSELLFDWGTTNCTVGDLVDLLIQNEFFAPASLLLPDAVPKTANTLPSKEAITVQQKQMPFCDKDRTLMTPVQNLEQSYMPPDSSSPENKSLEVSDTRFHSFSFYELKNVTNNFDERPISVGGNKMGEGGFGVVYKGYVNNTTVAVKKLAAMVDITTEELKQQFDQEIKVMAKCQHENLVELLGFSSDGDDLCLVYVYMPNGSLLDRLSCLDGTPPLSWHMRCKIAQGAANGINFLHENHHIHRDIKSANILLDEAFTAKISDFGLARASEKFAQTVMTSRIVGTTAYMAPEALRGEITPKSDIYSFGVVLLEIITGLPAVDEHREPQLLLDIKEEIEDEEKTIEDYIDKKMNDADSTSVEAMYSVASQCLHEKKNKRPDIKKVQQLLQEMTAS

As to `CC(C)(O)[C@H](F)CNC(=O)c1cnc(-c2ccc3cc(C#N)cnn23)cc1Nc1ccn(Cc2ccccc2)n1` [Example 370, (R)-4-((1-benzyl-1H-pyrazol-3-yl)amino)-6-(3-cyanopyrrolo[1,2-b]pyridazin-7-yl)-N-(2-fluoro-3-hydroxy-3-methylbutyl)nicotinamide], the EC50 in assay [1] was 10 nM. Further, in assay [2], it took 1 nM to reach half-maximal inhibition (IC50).

For `Cn1ccc(Nc2cc(-c3ccc4cc(C#N)cnn34)ncc2C(=O)NC[C@@H](F)C(C)(C)O)n1` [Example 371, (R)-6-(3-cyanopyrrolo[1,2-b]pyridazin-7-yl)-N-(2-fluoro-3-hydroxy-3-methylbutyl)-4-((1-methyl-1H-pyrazol-3-yl)amino)nicotinamide], in assay [1], the EC50 was 61 nM. In assay [2], this molecule displayed an IC50 of less than 1 nM.

For `CC(C)(O)[C@H](F)CNC(=O)c1cnc(-c2ccc3cc(C#N)cnn23)cc1NC12CC(C(N)=O)(C1)C2` [Example 373, (R)-4-((3-carbamoylbicyclo[1.1.1]pentan-1-yl)amino)-6-(3-cyanopyrrolo[1,2-b]pyridazin-7-yl)-N-(2-fluoro-3-hydroxy-3-methylbutyl)nicotinamide], in assay [1], the EC50 came out at 141 nM. The molecule further came in with a concentration for half-maximal inhibition (IC50) in assay [2] of less than 1 nM.

For the molecule `CC(C)(O)[C@H](F)CNC(=O)c1cnc(-c2ccc3cc(C#N)cnn23)cc1Nc1nc(C(F)(F)F)cs1` [Example 374, (R)-6-(3-cyanopyrrolo[1,2-b]pyridazin-7-yl)-N-(2-fluoro-3-hydroxy-3-methylbutyl)-4-((4-(trifluoromethyl)thiazol-2-yl)amino)nicotinamide], the EC50 in assay [1] is 327 nM. The same molecule displayed an IC50 in assay [2] of 1 nM.

In the case of `CC(C)(O)[C@H](F)CNC(=O)c1cnc(-c2ccc3cc(C#N)cnn23)cc1Nc1nccs1` [Example 375, (R)-6-(3-cyanopyrrolo[1,2-b]pyridazin-7-yl)-N-(2-fluoro-3-hydroxy-3-methylbutyl)-4-(thiazol-2-ylamino)nicotinamide], the EC50 in assay [1] came out at 110 nM. This molecule came in with an IC50 in assay [2] of 1 nM.

Turning to `COc1ccc2nc(Nc3cc(-c4ccc5cc(C#N)cnn45)ncc3C(=O)NC[C@@H](F)C(C)(C)O)sc2c1` [Example 376, (R)-6-(3-cyanopyrrolo[1,2-b]pyridazin-7-yl)-N-(2-fluoro-3-hydroxy-3-methylbutyl)-4-((6-methoxybenzo[d]thiazol-2-yl)amino)nicotinamide], the concentration giving a half-maximal response (EC50) in assay [1] stood at 736 nM. This molecule also had an IC50 in assay [2] of 2 nM.

Turning to `CC(C)(O)[C@H](F)CNC(=O)c1cnc(-c2ccc3cc(C#N)cnn23)cc1NC12CC(C#N)(C1)C2` [Example 378, (R)-4-((3-cyano-bicyclo[1.1.1]pentan-1-yl)amino)-6-(3-cyano-pyrrolo[1,2-b]pyridazin-7-yl)-N-(2-fluoro-3-hydroxy-3-methylbutyl) nicotinamide], in assay [1], the EC50 was found to be 38 nM. In assay [2], this molecule yielded an IC50 of less than 1 nM.

Consider `CC(C)Nc1cc(-c2ccc3cc(C#N)cnn23)ncc1C(=O)NC12CC(C#N)(C1)C2` [Example 380, N-(3-cyanobicyclo[1.1.1]pentan-1-yl)-6-(3-cyano-pyrrolo[1,2-b]pyridazin-7-yl)-4-(isopropylamino) nicotinamide], for which the EC50 in assay [1] was 773 nM. The molecule also came in with an IC50 in assay [2] of 15 nM.

On to `CC(C)(O)[C@H](F)CNC(=O)c1cnc(-c2ccc3cc(C#N)cnn23)cc1Nc1ccc(C(N)=O)cc1` [Example 381], for which the EC50 in assay [1] amounted to 18 nM. The molecule also yielded an IC50 in assay [2] of less than 1 nM.

For `CC(C)(O)[C@H](F)CNC(=O)c1cnc(-c2ccc3cc(C#N)cnn23)cc1Nc1ccccc1C(N)=O` [Example 382, (R)-4-((2-carbamoyl-phenyl)amino)-6-(3-cyanopyrrolo[1,2-b]pyridazin-7-yl)-N-(2-fluoro-3-hydroxy-3-methylbutyl)nicotinamide], the EC50 in assay [1] came out at 586 nM. Further, the IC50 in assay [2] was 10 nM.

`CC(C)(O)[C@H](F)CNC(=O)c1cnc(-c2ccc3cc(C#N)cnn23)cc1Nc1cccc(C(N)=O)c1` [Example 383, (R)-4-((3-carbamoyl-phenyl)amino)-6-(3-cyanopyrrolo[1,2-b]pyridazin-7-yl)-N-(2-fluoro-3-hydroxy-3-methylbutyl)nicotinamide]: the EC50 in assay [1] was 144 nM. The molecule also came in with an IC50 in assay [2] of less than 1 nM.

Take `CC(C)(O)[C@H](F)CNC(=O)c1cnc(-c2ccc3cc(C#N)cnn23)cc1Nc1cccc(F)c1` [Example 384, (R)-6-(3-cyanopyrrolo[1,2-b]pyridazin-7-yl)-N-(2-fluoro-3-hydroxy-3-methylbutyl)-4-((3-fluorophenyl)amino) nicotinamide]: the EC50 in assay [1] amounted to 129 nM. The molecule further yielded an IC50 in assay [2] of 1 nM.

In the case of `CC(C)(O)[C@H](F)CNC(=O)c1cnc(-c2ccc3cc(C#N)cnn23)cc1Nc1ccc(-n2ccccc2=O)cc1` [Example 385, (R)-6-(3-cyanopyrrolo[1,2-b]pyridazin-7-yl)-N-(2-fluoro-3-hydroxy-3-methylbutyl)-4-((4-(2-oxopyridin-1(2H)-yl)phenyl)amino)nicotinamide], the EC50 in assay [1] worked out at 36 nM. Moreover, the IC50 in assay [2] is less than 1 nM.

Consider `N#Cc1ccc(NC(=O)c2cnc(-c3ccc4cc(C#N)cnn34)cc2N[C@H]2CCC[C@@H](O)C2)nc1` [Example 386, 6-(3-cyanopyrrolo[1,2-b]pyridazin-7-yl)-N-(5-cyanopyridin-2-yl)-4-(((1S,3R)-3-hydroxycyclohexyl)amino)nicotinamide], for which the EC50 in assay [1] amounted to 2380 nM. The molecule further yielded a 50% inhibitory concentration (IC50) in assay [2] of 8 nM.

Regarding `COC(=O)NC1CCC(NC(=O)c2cnc(-c3ccc4cc(C#N)cnn34)cc2N[C@H]2CCCC(O)C2)CC1` (stereo partly drawn) [Example 387, methyl ((1S,4r)-4-(6-(3-cyanopyrrolo[1,2-b]pyridazin-7-yl)-4-(((1S,3R)-3-hydroxy-cyclohexyl)amino)nicotinamido)cyclohexyl)carbamate], in assay [1], the EC50 turned out to be 112 nM. In assay [2], this molecule yielded an IC50 of 2 nM.

For the molecule `C[C@]1(O)C[C@@H](Nc2cc(-c3ccc4cc(C#N)cnn34)ncc2C(=O)NCC#N)C1` [Example 388, N-(cyanomethyl)-6-(3-cyanopyrrolo[1,2-b]pyridazin-7-yl)-4-(((1s,3s)-3-hydroxy-3-methylcyclobutyl)amino) nicotinamide], the EC50 in assay [1] turned out to be 96 nM. For the same molecule, it took 1 nM to reach half-maximal inhibition in assay [2] (IC50).

Take `C[C@]1(O)C[C@H](Nc2cc(-c3ccc4cc(C#N)cnn34)ncc2C(=O)NCC#N)C1` [Example 389, N-(cyanomethyl)-6-(3-cyanopyrrolo[1,2-b]pyridazin-7-yl)-4-(((1r,3r)-3-hydroxy-3-methylcyclobutyl)amino) nicotinamide]: in assay [1], the EC50 amounted to 137 nM. This molecule also registered an IC50 in assay [2] of 3 nM.

Take `N#Cc1cnn2c(-c3cc(N[C@H]4CC[C@H](N5CCOC5=O)CC4)c(C(=O)NCC(N)=O)cn3)ccc2c1` [Example 390, N-(2-amino-2-oxoethyl)-6-(3-cyanopyrrolo[1,2-b]pyridazin-7-yl)-4-(((1r,4r)-4-(2-oxooxazolidin-3-yl)cyclohexyl)amino) nicotinamide]: the EC50 in assay [1] is greater than 10000 nM. The same molecule yielded an IC50 in assay [2] of 6 nM.

For `N#CCNC(=O)c1cnc(-c2ccc3cc(C#N)cnn23)cc1N[C@H]1CC[C@H](N2CCOC2=O)CC1` [Example 391, N-(cyanomethyl)-6-(3-cyanopyrrolo[1,2-b]pyridazin-7-yl)-4-(((1r,4r)-4-(2-oxooxazolidin-3-yl)cyclohexyl)amino) nicotinamide], the EC50 in assay [1] was found to be 33 nM. The IC50 in assay [2] was less than 1 nM.
